Measurements reported in PMC3914206.

Legend:
[1] = biological target: T1, panel of 442 kinases (Homo sapiens, UniProt P36897); assay type: binding; settings: kinase TGFBR1; compound concentration 10 µM
T1 construct: purchased KINOMEscan
T1 sequence (P36897 34-503): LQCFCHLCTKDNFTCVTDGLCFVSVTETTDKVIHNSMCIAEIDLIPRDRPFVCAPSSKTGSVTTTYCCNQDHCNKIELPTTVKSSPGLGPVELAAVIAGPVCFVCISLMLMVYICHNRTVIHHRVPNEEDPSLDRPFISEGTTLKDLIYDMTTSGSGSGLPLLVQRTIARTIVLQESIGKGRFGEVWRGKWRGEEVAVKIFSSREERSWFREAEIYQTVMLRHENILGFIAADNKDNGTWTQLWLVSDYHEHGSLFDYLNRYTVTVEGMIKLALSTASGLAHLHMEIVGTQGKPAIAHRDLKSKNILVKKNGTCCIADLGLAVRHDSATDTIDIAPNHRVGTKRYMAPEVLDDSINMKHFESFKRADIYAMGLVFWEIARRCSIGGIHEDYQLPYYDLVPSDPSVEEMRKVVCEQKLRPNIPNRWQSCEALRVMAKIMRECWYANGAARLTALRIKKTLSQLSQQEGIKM
Text: (§1) We assessed the selectivity of members of this scaffold using the KINOMEscan methodology across a near comprehensive panel of 442 kinases [[18,27]].

[2] = biological target: T2, panel of 442 kinases (Homo sapiens, UniProt O14730); assay type: binding; settings: Compound Concentration 10 µM
T2 construct: purchased KINOMEscan
T2 sequence (O14730 1-519): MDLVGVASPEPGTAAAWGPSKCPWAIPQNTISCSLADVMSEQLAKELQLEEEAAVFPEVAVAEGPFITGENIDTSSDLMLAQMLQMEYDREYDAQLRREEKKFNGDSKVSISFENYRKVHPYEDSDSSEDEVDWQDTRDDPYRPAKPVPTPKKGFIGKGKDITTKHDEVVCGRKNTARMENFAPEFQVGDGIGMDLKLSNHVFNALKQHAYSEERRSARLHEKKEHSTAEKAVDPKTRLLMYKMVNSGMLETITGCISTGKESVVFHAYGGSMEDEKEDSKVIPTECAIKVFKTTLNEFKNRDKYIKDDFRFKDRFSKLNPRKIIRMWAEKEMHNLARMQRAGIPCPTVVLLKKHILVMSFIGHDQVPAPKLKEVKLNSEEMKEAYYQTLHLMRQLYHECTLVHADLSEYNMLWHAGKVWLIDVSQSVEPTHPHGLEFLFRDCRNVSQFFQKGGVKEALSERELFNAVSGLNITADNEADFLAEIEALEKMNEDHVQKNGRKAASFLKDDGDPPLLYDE
Text: as §1

Compound: COc1cc(C(=O)N2CCC(N3CCN(C)CC3)CC2)ccc1Nc1ncc2c(n1)N(C)c1ccccc1C(=O)N2C [15 (LRRK2-IN-1)]
- % Ctrl, TGFBR1 [1]: 100 % Ctrl
- KINOMEscan: RIOK3 [2]: 85

Compound: CCOc1cc(C(=O)N2CCC(N3CCN(C)CC3)CC2)ccc1Nc1ncc2c(n1)N(C1CCCC1)c1ccccc1C(=O)N2C [Compound 26]
- % Ctrl, TGFBR1 [1]: 100 % Ctrl
- KINOMEscan: RIOK3 [2]: 89

Compound: COc1cc(C(=O)N2CCC(N3CCN(C)CC3)CC2)ccc1Nc1ncc2c(n1)N1CCc3cccc(c31)C(=O)N2C [Compound 24]
- % Ctrl, TGFBR1 [1]: 100 % Ctrl
- KINOMEscan: RIOK3 [2]: 74

Compound: COc1cc(C(=O)N2CCC(N3CCN(C)CC3)CC2)ccc1Nc1ncc2c(n1)N(C1CCCC1)c1ccccc1C(=O)N2C [Compound 25, 11-cyclopentyl-2-((2-methoxy-4-(4-(4-methylpiperazin-1-yl)piperidine-1-carbonyl)phenyl)amino)-5-methyl-5H-benzo[e]pyrimido[5,4-b][1,4]diazepin-6(11H)-one]
- % Ctrl, TGFBR1 [1]: 98 % Ctrl
- KINOMEscan: RIOK3 [2]: 84
